Results from US20090227606A1, “Methods for Preventing or Treating Acute and Chronic Pain” (priority 2006, published 2009).
Entries after “also recorded” stand apart in the source; their conditions may differ.

Tests used:
[1] = tested on: Na+-dependent glutamate transport; assay: Na+-dependent [3H]-glutamate uptake in cultured astrocytes; assay type: cell-based, rat
Procedure: Primary astrocytes were plated in 6-well plates, as described above. […] Where indicated, 100 μM dihydrokainate (DHK) was added to wells for 10 minutes before the addition of the substrate. Subsequently, [^3H]-glutamate in Na^+ Krebs buffer or Na^+-free Krebs buffer (choline buffer) was added for 4 minutes at 37° C. The reaction was stopped by washing three times with ice cold buffer (0.05 M Tris/0.16 M NaCl, pH 7.4), and cells were lysed with 1 ml 0.1 N NaOH. The radioactivity in a 500 μl lysate aliquot was determined by liquid scintillation counting and a fraction of the lysate was also used for determination of protein concentration using the Lowry method (DC assay, Bio-Rad, Hercules, Calif.). Na^+-dependent transport was calculated as the difference in the radioactivity accumulated in the presence and absence of Na^+ and calculated as nmol/mg protein/min. Results are expressed as uptake relative to control samples.

[2] = tested on: cultured astrocytes; assay: Reversibility of astrocyte phenotype change after 7 day washout; assay type: cell-based, rat; conditions: 7 days treatment (high dose), then 7 day washout in control media
Procedure: In order to ensure that the morphological effects of propentofylline on astrocytes were due to specific pharmacological effects and not due to toxicity, experiments were performed to determine if the phenotype change observed was reversible.
After approximately 14 days (2 days after subplating into plates, DIV 14) astrocytes had formed a confluent monolayer. […] Phase contrast microscopy was then carried out in order to assess the morphology of cells after the various treatments.

[3] = tested on: GLAST; assay: Western blot of ipsilateral lumbar spinal cord, GLAST protein; assay type: in vivo, rat; conditions: day 12 post-transection
Procedure: Tissue was collected from 4-5 rats/group on postoperative days 4 or 12. In order to obtain both mRNA and protein from the same tissue sample, the L5 region of the spinal cord (ipsilateral to the injury), was isolated and placed in PBS supplemented with protease inhibitor cocktail (1:1000, Sigma Chemical Co., St. Louis, Mo.) and RNase inhibitor (0.75 U/μL Ambion, Austin, Tex.). Samples were sonicated in five one-second bursts at half-maximal power, centrifuged at 6500 rpm for 15 minutes at 4° C. Protein-containing supernatants were collected and stored at −80° C. until further processing by Western blot analysis. The pellet was treated with TRIzol reagent (Invitrogen, Carlsbad, Calif.) for the extraction of total RNA according to the manufacturer's specifications.
Protein obtained from L5 lumbar spinal cord was quantified using the Lowry method (DC assay, Bio-Rad, Hercules, Calif.). Forty micrograms of protein and standard protein markers were subjected to SDS polyacrylamide gel electrophoresis (7.5% gel, Bio-Rad, Hercules, Calif.) and id transferred to polyvinylidene difluoride (PVDF, Bio-Rad, Hercules, Calif.) filters. Nonspecific binding was blocked by incubation with 5% milk/PBS-T at room temperature for 1 hour followed by incubation overnight at 4° C. with monoclonal guinea pig anti-GLT-1 or guinea pig anti-GLAST (1:2500, Chemicon). […]

SMILES: CCCn1cnc2c1c(=O)n(CCCCC(C)=O)c(=O)n2C [propentofylline]
- sensitivity of increased glutamate transport to DHK inhibition ([1]; 100 μM DHK for 10 minutes before substrate): sensitive to DHK inhibition
- increase in glutamate uptake ([1]; 100 μM, 7 days): 1.7 fold
- increase in Na+-dependent glutamate transport ([1]; 1000 μM, 7 days): 2.1 fold
- glutamate uptake, in words ([1]; 7-day treated cultures): dose-dependent increase in glutamate uptake
- reversibility of morphological change [2]: reversal was more complete in propentofylline-treated cells
- GLAST protein [3]: further decreased by propentofylline treatment; also recorded: slight decrease
